The values that follow come from paper PMC11684029, “Discovery of VU6024578/BI02982816: An mGlu1 Positive Allosteric Modulator with Efficacy in Preclinical Antipsychotic and Cognition Models” (Journal of Medicinal Chemistry, 2024).

For data set [1], the target named is T1, human mGlu1 (Homo sapiens, UniProt Q13255).
T1 construct: expressed in transfected cells; pcDNA5/TO)
Nature of the data set: mGlu1 calcium mobilization (triple-add) PAM assay. The format is cell-based. Here is the method: Tetracycline-inducible human mGlu1 WT-T-REx-293 cells (Wu et al, Science 2014) were cultured at 37 °C in Dulbecco’s Modified Eagle Medium (DMEM) growth medium containing 10% Tet-tested FBS, 2 mM L-glutamine, 20 mM HEPES, 0.1 mM nonessential amino acids, 1 mM sodium pyruvate, antibiotic/antimycotic, 100 μg/mL hygromycin and 5 μg/mL blasticidin in the presence of 5% CO2. […] The mutant stable cell lines were generated in the same manner as the WT as previously described and cultured in the growth medium described above.
To determine the potency of mGlu1 PAMs in calcium assays, Ca flux was measured as previously described in ACS Chem. Bio. 2014, 9, 2334–2346. Briefly, the day before the assay, human mGlu1 WT-T-REx-293 cells were plated in black-walled, clear-bottomed, poly-D-lysine coated 96-well plates at 80,000 cells/100 μL assay medium (DMEM supplemented with 10% dialyzed FBS, 20 mM HEPES, and 1 mM sodium pyruvate) containing 50 ng/mL of tetracycline to induce mGlu1 expression. The next day, media was removed and the cells were incubated with 50 μL of 1.15 μM Fluo-4 AM dye solution prepared in assay buffer (buffer (Hank’s balanced salt solution, 20 mM HEPES, and 2.5 mM probenecid) for 45 min at 37 °C, the dye was removed and replaced with 45 μL of assay buffer. Then, calcium flux was measured using Flexstation II (Molecular Devices, Sunnyvale, CA). Compounds serially diluted at half log concentrations in DMSO were further diluted in assay buffer. The compounds or DMSO vehicle were added to cells and incubated for 2.5 min and an EC20 concentration of glutamate was added and incubated for 1 min. An ECmax concentration of glutamate was also added to cells that were incubated with DMSO vehicle to accurately calculate the EC20 calcium response. Data were normalized by subtracting the basal florescent peak before EC20 agonist addition from the maximal peak elicited by EC20 agonist and PAMs. Using GraphPad Prism 5.0, the concentration response curves were generated and the potencies of the mGlu1 PAMs were determined.
(In general: A change in cytosolic calcium serves as a functional read-out for many receptors and channels.)

Data set [2] deals with rat mGlu1 (Rattus norvegicus, UniProt P23385). The data set is described as follows: mGlu1 calcium mobilization PAM assay. The format is cell-based. As to conditions: PAM, calcium flux.
rat mGlu1, sequence (P23385 19-1199): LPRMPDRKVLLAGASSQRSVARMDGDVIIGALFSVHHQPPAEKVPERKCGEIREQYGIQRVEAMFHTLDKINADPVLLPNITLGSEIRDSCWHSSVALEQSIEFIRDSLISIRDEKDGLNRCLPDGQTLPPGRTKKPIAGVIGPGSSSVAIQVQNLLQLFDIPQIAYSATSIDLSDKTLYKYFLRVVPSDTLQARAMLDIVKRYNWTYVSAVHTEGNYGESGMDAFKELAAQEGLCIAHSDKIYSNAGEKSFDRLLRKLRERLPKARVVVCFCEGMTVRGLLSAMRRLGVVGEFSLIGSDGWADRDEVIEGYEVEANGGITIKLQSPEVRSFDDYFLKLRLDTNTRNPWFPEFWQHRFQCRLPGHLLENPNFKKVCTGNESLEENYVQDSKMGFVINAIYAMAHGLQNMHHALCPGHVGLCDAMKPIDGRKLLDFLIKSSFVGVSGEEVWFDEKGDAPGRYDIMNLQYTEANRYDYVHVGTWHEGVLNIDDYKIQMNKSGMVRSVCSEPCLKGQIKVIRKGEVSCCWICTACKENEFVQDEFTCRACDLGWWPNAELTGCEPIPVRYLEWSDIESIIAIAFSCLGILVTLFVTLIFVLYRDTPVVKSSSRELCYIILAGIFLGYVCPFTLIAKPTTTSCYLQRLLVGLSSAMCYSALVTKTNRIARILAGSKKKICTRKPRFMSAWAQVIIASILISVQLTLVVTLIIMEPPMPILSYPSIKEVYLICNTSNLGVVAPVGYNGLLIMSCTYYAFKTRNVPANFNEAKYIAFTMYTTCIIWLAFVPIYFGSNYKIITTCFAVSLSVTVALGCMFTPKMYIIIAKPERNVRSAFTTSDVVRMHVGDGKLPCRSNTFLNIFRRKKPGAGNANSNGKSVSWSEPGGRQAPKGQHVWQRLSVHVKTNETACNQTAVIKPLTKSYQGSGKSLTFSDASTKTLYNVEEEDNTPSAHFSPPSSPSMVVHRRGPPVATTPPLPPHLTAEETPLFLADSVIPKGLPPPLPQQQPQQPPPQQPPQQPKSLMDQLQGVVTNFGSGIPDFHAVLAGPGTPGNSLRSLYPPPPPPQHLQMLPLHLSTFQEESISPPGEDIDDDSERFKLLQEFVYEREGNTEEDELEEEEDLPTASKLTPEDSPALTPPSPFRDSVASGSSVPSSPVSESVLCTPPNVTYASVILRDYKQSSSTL
The nature of data set [3]: plasma protein binding, equilibrium dialysis. The format is in vitro ADME, human. To be noted: fraction unbound. Here is the method:
(§1) The protein binding of each compound was determined in plasma via equilibrium dialysis employing RED Plates (ThermoFisher Scientific, Rochester, NY). Plasma was added to the 96 well plate containing test compound and mixed thoroughly for a final concentration of 5 μM. Subsequently, an aliquot of the plasma-compound mixture was transferred to the cis chamber (red) of the RED plate, with an phosphate buffer (25 mM, pH 7.4) in the trans chamber. The RED plate was sealed and incubated for 4 h at 37 °C with shaking. At completion, aliquots from each chamber were diluted 1:1 with either plasma (cis) or buffer (trans) and transferred to a new 96 well plate, at which time ice-cold acetonitrile containing internal standard (50 ng/mL carbamazepine) (2 volumes) was added to extract the matrices. The plate was centrifuged (3000 rcf, 10 min) and supernatants transferred and diluted 1:1 (supernatant: water) into a new 96 well plate, which was then sealed in preparation for LC/MS/MS analysis. Each compound was assayed in triplicate within the same 96-well plate. Fraction unbound was determined using the following equation [drawing 1]
Background: In equilibrium dialysis only unbound substance equilibrates across the membrane.

Data set [4] in a line: plasma protein binding, equilibrium dialysis. The format is in vitro ADME, rat. As to conditions: fraction unbound. Here is the method:
as §1

Data set [5] is described as follows: intrinsic clearance, predicted hepatic clearance. As to conditions: in vitro predicted hepatic clearance. The format is in vitro ADME, human. As for the experimental part: (§2) Human or rat hepatic microsomes (0.5 mg/mL) and 1 μM test compound were incubated in 100 mM potassium phosphate pH 7.4 buffer with 3 mM MgCl2 at 37 °C with constant shaking. After a 5 min preincubation, the reaction was initiated by addition of NADPH (1 mM). At selected time intervals (0, 3, 7, 15, 25, and 45 min), aliquots were taken and subsequently placed into a 96-well plate containing cold acetonitrile with internal standard (50 ng/mL carbamazepine). Plates were then centrifuged at 3000 rcf (4 °C) for 10 min, and the supernatant was transferred to a separate 96-well plate and diluted 1:1 with water for LC/MS/MS analysis. The in vitro half-life (T1/2, min, eq 1), intrinsic clearance (CLint, mL/min/kg, eq 2) and subsequent predicted hepatic clearance (CLhep, mL/min/kg, eq 3) was determined employing the following equations: [drawing 2] 1 where k represents the slope from linear regression analysis of the natural log percent remaining of test compound as a function of incubation time [drawing 3] 2
(§3) ^ascale-up factors: of 20 (human) or 45 (rat) [drawing 4] 3 where Qh (hepatic blood flow, mL/min/kg) is 21 (human) or 70 (rat).

Data set [6] in a line: intrinsic clearance, predicted hepatic clearance. The format is in vitro ADME, rat. To be noted: in vitro predicted hepatic clearance. Here is the method: as §2, §3
The nature of data set [7]: brain homogenate binding. To be noted: fraction unbound. The format is in vitro ADME, rat.
Setting [8] is: PAM, calcium flux, EC20 glutamate.

Each structure is given as a SMILES string.

For orientation: EC50 means the concentration giving half of the maximal effect.

T1 sequence (Q13255 19-1194): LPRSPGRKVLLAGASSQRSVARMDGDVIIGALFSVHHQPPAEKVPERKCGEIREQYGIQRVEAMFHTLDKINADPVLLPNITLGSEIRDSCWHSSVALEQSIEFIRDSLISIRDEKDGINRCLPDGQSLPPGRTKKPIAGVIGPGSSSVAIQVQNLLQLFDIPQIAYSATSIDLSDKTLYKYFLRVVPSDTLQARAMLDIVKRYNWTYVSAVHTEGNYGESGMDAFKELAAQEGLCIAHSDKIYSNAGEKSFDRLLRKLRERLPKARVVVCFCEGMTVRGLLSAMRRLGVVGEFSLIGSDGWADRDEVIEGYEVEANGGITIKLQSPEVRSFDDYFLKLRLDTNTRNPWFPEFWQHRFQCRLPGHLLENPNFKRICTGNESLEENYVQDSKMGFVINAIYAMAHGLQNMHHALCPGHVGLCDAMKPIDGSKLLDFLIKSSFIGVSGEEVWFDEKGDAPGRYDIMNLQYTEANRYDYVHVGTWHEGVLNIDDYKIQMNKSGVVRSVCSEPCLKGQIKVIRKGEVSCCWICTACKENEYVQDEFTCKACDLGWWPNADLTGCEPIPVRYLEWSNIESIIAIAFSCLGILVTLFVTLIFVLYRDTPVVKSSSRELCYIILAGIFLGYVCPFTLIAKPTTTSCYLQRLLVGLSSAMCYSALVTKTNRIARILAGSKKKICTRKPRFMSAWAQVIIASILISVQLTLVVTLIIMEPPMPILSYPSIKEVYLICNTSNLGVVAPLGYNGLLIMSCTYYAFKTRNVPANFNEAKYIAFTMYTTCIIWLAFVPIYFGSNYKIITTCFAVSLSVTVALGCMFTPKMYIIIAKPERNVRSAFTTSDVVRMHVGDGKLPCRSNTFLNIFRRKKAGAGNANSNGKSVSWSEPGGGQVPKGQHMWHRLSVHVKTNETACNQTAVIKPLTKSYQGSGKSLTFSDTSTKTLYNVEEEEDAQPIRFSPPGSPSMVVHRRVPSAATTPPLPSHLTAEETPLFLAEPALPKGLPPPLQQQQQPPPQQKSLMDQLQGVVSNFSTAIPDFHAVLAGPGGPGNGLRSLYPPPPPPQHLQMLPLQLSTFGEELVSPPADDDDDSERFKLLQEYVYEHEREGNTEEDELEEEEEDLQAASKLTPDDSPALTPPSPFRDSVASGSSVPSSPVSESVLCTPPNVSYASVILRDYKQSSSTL

Take `COc1ccc(Cl)cc1C(=O)NCc1cnn2ccccc12` [Compound 6, 5-Chloro-2-methoxy-N-(pyrazolo[1,5-a]pyridin-3-ylmethyl)benzamide]: in data set [1] (setting [8]), the EC50 was over 10000 nM and the “human mGlu1 Glumax” value is listed as 71%.

As for `COc1ccc(OC)c(C(=O)NCc2cnn3ccccc23)c1` [Compound 9a, 2,5-Dimethoxy-N-(pyrazolo[1,5-a]pyridin-3-ylmethyl)benzamide], in data set [1] (setting [8]), the EC50 came out at 5120 nM and the “human mGlu1 Glumax” value is 45%.

For `COc1ccc(C)cc1C(=O)NCc1cnn2ccccc12` [Compound 9b, 2-Methoxy-5-methyl-N-(pyrazolo[1,5-a]pyridin-3-ylmethyl)benzamide], in data set [1] (setting [8]), the EC50 amounted to 7380 nM and the “human mGlu1 Glumax” value is 62%.

Turning to `Cc1ccc(Cl)cc1C(=O)NCc1cnn2ccccc12` [Compound 9c, 5-Chloro-2-methyl-N-(pyrazolo[1,5-a]pyridin-3-ylmethyl)benzamide], in data set [1] (setting [8]), the EC50 was found to be 6060 nM and the “human mGlu1 Glumax” value is 47%.

As to `O=C(NCc1cnn2ccccc12)c1cc(Cl)ccc1Cl` [Compound 9d, 2,5-Dichloro-N-(pyrazolo[1,5-a]pyridin-3-ylmethyl)benzamide], in data set [1] (setting [8]), the EC50 came out at 3790 nM and the “human mGlu1 Glumax” value amounted to 46%. In addition, the “improvement in mGlu1 PAM potency over HTS hit 6” value in data set [1] (human mGlu1 EC50 ratio) was about 3 fold.

On to `O=C(NCc1cnn2ccccc12)c1cc(-c2ccccc2)ccc1Cl` [Compound 9f, 4-Chloro-N-(pyrazolo[1,5-a]pyridin-3-ylmethyl)-[1,1′-biphenyl]-3-carboxamide], for which, in data set [1] (setting [8]), the EC50 was 434 nM and the “human mGlu1 Glumax” value is recorded as 33%. In data set [2], the EC50 stood at 1010 nM and the “rat mGlu1 Glumax” value is on record as 48%.

For `O=C(NCc1cnn2ccccc12)c1cc(-c2cccs2)ccc1Cl` [Compound 9g, 2-Chloro-N-(pyrazolo[1,5-a]pyridin-3-ylmethyl)-5-(thiophen-2-yl)benzamide], in data set [1] (setting [8]), the EC50 worked out at 291 nM and the “human mGlu1 Glumax” value is reported as 51%. For the same molecule, in data set [2], the EC50 was found to be 369 nM and the “rat mGlu1 Glumax” value is listed as 75%.

Consider `O=C(NCc1cnn2ccccc12)c1cc(-c2ccsc2)ccc1Cl` [Compound 9h, 2-Chloro-N-(pyrazolo[1,5-a]pyridin-3-ylmethyl)-5-(thiophen-3-yl)benzamide], for which, in data set [1] (setting [8]), the EC50 was 641 nM and the “human mGlu1 Glumax” value was 35%.

As for `O=C(NCc1cnn2ccccc12)c1cc(-c2nccs2)ccc1Cl` [Compound 9i, 2-Chloro-N-(pyrazolo[1,5-a]pyridin-3-ylmethyl)-5-(thiazol-2-yl)benzamide], in data set [1] (setting [8]), the concentration giving a half-maximal response (EC50) turned out to be 790 nM and the “human mGlu1 Glumax” value came to 61%. Further, in data set [2], the EC50 amounted to 3150 nM and the “rat mGlu1 Glumax” value came out at 79%.

As to `Cn1nccc1-c1ccc(Cl)c(C(=O)NCc2cnn3ccccc23)c1` [Compound 9j, 2-Chloro-5-(1-methyl-1H-pyrazol-5-yl)-N-(pyrazolo[1,5-a]pyridin-3-ylmethyl)benzamide], the “human mGlu1 EC50 (Glumax), result in words” value in data set [1] (setting [8]) is “Inactive”.

As to `O=C(NCc1cc(-c2ccccc2)no1)c1cc(-c2ccco2)ccc1Cl` [Compound 15a, 2-Chloro-5-(furan-2-yl)-N-((3-phenylisoxazol-5-yl)methyl)benzamide], in data set [1] (setting [8]), the half-maximal effective concentration (EC50) worked out at 211 nM and the “human mGlu1 Glumax” value is on record as 96%. In data set [3], this molecule had a human fuplasma of 0.001. Further, the rat fuplasma in data set [4] was determined as 0.009. For the same molecule, the “CLhep, human” value in data set [5] is recorded as 19.4 mL/min/kg. The “CLhep, rat” value in data set [6] was 60.9 mL/min/kg.

Take `O=C(NCc1noc(-c2ccccc2)n1)c1cc(-c2ccco2)ccc1Cl` [Compound 15b, 2-Chloro-5-(furan-2-yl)-N-((5-phenyl-1,2,4-oxadiazol-3-yl)methyl)benzamide]: in data set [1] (setting [8]), the EC50 is 39 nM and the “human mGlu1 Glumax” value stood at 56%. Moreover, in data set [2], the EC50 stood at 62 nM and the “rat mGlu1 Glumax” value was determined as 106%. For the same molecule, in data set [3], the human fuplasma stood at 0.001. The rat fuplasma in data set [4] is 0.004. In data set [7], this molecule showed a rat fubrain of 0.005. The “CLhep, human” value in data set [5] is on record as 19.9 mL/min/kg. For the same molecule, the “CLhep, rat” value in data set [6] is 61.8 mL/min/kg.

For the molecule `O=C(NCc1noc(C2CC2)n1)c1cc(-c2ccco2)ccc1Cl` [Compound 15c, 2-Chloro-N-((5-cyclopropyl-1,2,4-oxadiazol-3-yl)methyl)-5-(furan-2-yl)benzamide], in data set [1] (setting [8]), the EC50 turned out to be 10000 nM and the “human mGlu1 Glumax” value was found to be 44%.

Turning to `O=C(NCc1nc(C2CC2)no1)c1cc(-c2ccco2)ccc1Cl` [Compound 15d, 2-Chloro-N-((3-cyclopropyl-1,2,4-oxadiazol-5-yl)methyl)-5-(furan-2-yl)benzamide], in data set [1] (setting [8]), the EC50 was determined as 714 nM and the “human mGlu1 Glumax” value is given as 80%. Besides, in data set [2], the 50% effective concentration (EC50) was determined as 509 nM and the “rat mGlu1 Glumax” value amounted to 95%.

With `O=C(NCc1cnc(-c2cccs2)s1)c1cc(-c2ccco2)ccc1Cl` [Compound 15e, 2-Chloro-5-(furan-2-yl)-N-((2-(thiophen-2-yl)thiazol-5-yl)methyl)benzamide], in data set [1] (setting [8]), the EC50 came out at 96 nM and the “human mGlu1 Glumax” value is 71%. In data set [2], the half-maximal effective concentration (EC50) came out at 301 nM and the “rat mGlu1 Glumax” value turned out to be 51%. The molecule further had a human fuplasma in data set [3] of 0.001. The molecule further came in with a rat fuplasma in data set [4] of 0.003. The molecule further gave a rat fubrain in data set [7] of 0.002. The “CLhep, human” value in data set [5] was 19.7 mL/min/kg. Further, the “CLhep, rat” value in data set [6] was 57.4 mL/min/kg.

On to `Cn1nc(C(F)(F)F)cc1CNC(=O)c1cc(-c2ccco2)ccc1Cl` [Compound 15f, 2-Chloro-5-(furan-2-yl)-N-((1-methyl-3-(trifluoromethyl)-1H-pyrazol-5-yl)methyl)benzamide], for which, in data set [1] (setting [8]), the concentration giving a half-maximal response (EC50) stood at 188 nM and the “human mGlu1 Glumax” value is recorded as 60%. Also, in data set [2], the EC50 turned out to be 280 nM and the “rat mGlu1 Glumax” value came out at 74%. Further, the human fuplasma in data set [3] turned out to be 0.036. The molecule also displayed a rat fuplasma in data set [4] of 0.025. In addition, the rat fubrain in data set [7] is 0.019. The “CLhep, human” value in data set [5] was 20.3 mL/min/kg. Further, the “CLhep, rat” value in data set [6] is reported as 57.1 mL/min/kg.

On to `Cn1nc(-c2cccs2)cc1CNC(=O)c1cc(-c2ccco2)ccc1Cl` [Compound 19a, 2-Chloro-5-(furan-2-yl)-N-((1-methyl-3-(thiophen-2-yl)-1H-pyrazol-5-yl)methyl)benzamide], for which, in data set [1] (setting [8]), the EC50 was 56 nM and the “human mGlu1 Glumax” value turned out to be 69%. Besides, in data set [2], the EC50 is 20 nM and the “rat mGlu1 Glumax” value came to 109%. In data set [3], this molecule gave a human fuplasma of 0.002. Also, in data set [4], the rat fuplasma was found to be 0.002. Also, the rat fubrain in data set [7] is 0.003. In data set [5], the “CLhep, human” value was 19.0 mL/min/kg. Moreover, the “CLhep, rat” value in data set [6] is given as 54.8 mL/min/kg.
